Entries after “also recorded” stand apart in the source; their conditions may differ. Structures can show the parent of a compound that is named as a salt.
Assays:
[1] = Acute Toxicity in Rats; assay type: in vivo, rat; settings: rat, in vivo, po; P.O., rats; range in parentheses; read-out: Calculated LD50
[2] = test system: Rats; experiment: Acute Toxicity in Rats; assay type: in vivo, rat; settings: for Mortality Ratio / toxicity relative to fenfluramine: rats; for toxicity compared with fenfluramine / toxicity relative to fenfluramine: HCl salts; for toxicity compared with fenfluramine: summary in words; for toxicity relative to fenfluramine: acute
[3] = test system: Rats; experiment: Reduction of food consumption in rats (average daily consumption of food, ED50); assay type: in vivo, rat; settings: for % Change From Control Value in Average Daily Consumption of Food: one hour prior to feeding; for potency compared with fenfluramine: HCl salts, summary in words; for ED50: Rattus norvegicus, po, read-out: Calculated ED50 (dose necessary to reduce the intake of food by 50%); for Relative Potency: Summary of Table II, fenfluramine = 1
Protocol: Table II records the percent change in average daily consumption of food at various dosage levels upon administration of fenfluramine or the HCl salt of the compounds of formula B in which R is Cl or CF3 as well as the dose in milligrams per killograms necessary to reduce the intake of food by 50% (ED 50). […] In this study, drugs were administered one hour prior to feeding on the fifth day of regular food intake at doses of 5, 10 and 20 milligrams per killogram, with five rats being dosed at each level and fifteen rats serving as controls.
*ED50 : dose (mg/kg) necessary to reduce the intake of food by 50%.

[4] = test system: rat serum lipids and glucose; experiment: Effect of pre-treatment on rat serum lipids and glucose induced by olive oil gavage; assay type: in vivo, rat (male Sprague Dawley); settings: for Serum Free Fatty Acids: 20 mg/kg i.p. 2 hours before olive oil (20 ml/kg gavage); for Serum Free Fatty Acids / Serum Concentration, Cholesterol / Serum Concentration, Glucose / Serum Concentration, Glycerol / Serum Concentration, Triglycerides: blood 3 hours after oil; for Serum Concentration, Cholesterol / Serum Concentration, Glucose / Serum Concentration, Glycerol / Serum Concentration, Triglycerides: 20 mg/kg i.p. 2 hours before olive oil; for inhibiting the increase in serum triglycerides induced by olive oil gavage: % of the oil treated group; for reduction of olive oil induced increase in serum cholesterol: HCl salts; for inhibiting the increase in serum triglycerides, compared with fenfluramine: olive oil gavage
Source text: The effect of pre-treatment with fenfluramine and the HCl salts of the compounds of formula B in which R is Cl or CF3 on rat serum lipids and glucose induced by olive oil gavage.
The present study was designed to compare the effects of fenfluramine, and the HCl salts of the compounds of formula B in which R=Cl and CF3 on serum glucose and lipid parameters in male rats after an olive oil meal.
Twenty-four male Sprague Dawley rats (200-250 g.) were divided into 8 groups as follows:
The animals were not fasted. Where indicated, the rats were pre-treated (intraperitoneally) with the appropriate drug for 2 hours prior to the administration of olive oil. Three hours after olive oil treatment, the animals were anesthetized with ether and blood samples obtained by cardiac puncture of the exposed heart. In each case, total treatment time was 5 hours.

[5] = Comparison with fenfluramine: stimulating properties; assay type: in vivo; settings: HCl salts, in words
[6] = Solubility of the salt in water; settings: HCl salt
[7] = test system: Rats; experiment: Sidman Avoidance Test in the Rat; assay type: in vivo, rat (male, Long Evans black-hooded); settings: for effect on performance / behavior: 8 mg/kg; for effect on performance / behavior / effect on performance in Sidman Avoidance test / effect on response rate / effect on shock rate: in words; for effect on performance in Sidman Avoidance test / effect on response rate / effect on shock rate: overall
Protocol: The compound fenfluramine and the HCl salt compound of formula B in which R is Cl were examined in the Sidman Avoidance test.
Fenfluramine was run as a standard compound for comparative purposes in the study of appetite-suppressing drugs. The effects of drug-induced behavior are evaluated using the technique of Sidman Avoidance (Sidman, M., J. Comp. Physiol. Psychol. 46:253-261, 1953).
Male, Long Evans black-hooded rats (Simonsen Labs) weighing approximately 500 grams are run individually in Lehigh Valley Electronics rodent test chambers. Sessions (day/night) are 7.5 hours and 14 hours in length, respectively. The paradigm consists of two distinct temporal intervals for neither of which is the rat given any exteroceptive cues. The amount of time that elapses between shocks designates the shock-shock interval, is of a predetermined fixed length (10 seconds), and programmed by a recycling timer. When the rat responds by pressing a lever, the shock-shock interval is terminated and the response-shock interval is started. This interval is also of a predetermined fixed length (30 seconds) and programmed by a recycling timer. Both timers never operate simultaneously. The response-shock interval begins anew each time the rat responds on the lever. If the interval should elapse without the rat responding, a Shock (0.5 seconds, 10 mA) is given via the grid floor and the response-shock interval ends and the shock-shock interval begins.
Drug effects are evaluated as a precentage deviation of the rat's behavior from his baseline rate (responses/minute and shocks/minute). These effects are analyzed in 15 minute segments and an overall percentage deviation (response index and shock index) is determined.
based on an 8 mg/kg oral dose.

[8] = test system: Mouse; experiment: Symtomatology Tests in the Mouse; assay type: in vivo; settings: for stimulant effects: low doses (10-50 mg/kg)
Source text: Symtomatology Tests in the Mouse

[9] = test system: diabetics; settings: cited from earlier work
[10] = test system: plasma free fatty acids and triglycerides; settings: cited from earlier work
[11] = 8 mg/kg oral, 7.5 hours session, 4 rats

C=COCCNC(C)Cc1cccc(C(F)(F)F)c1 (stereo not drawn) [HCl Salt, R=CF3, N-(2-vinyloxyethyl)-α-methyl-β-(3-trifluoromethylphenyl) Phenethylamine Hydrochloride]
LD50 [1]: 1010 mg/kg
Mortality Ratio ([2]; 0.5 gm/kg P.O.): 0/6
Mortality Ratio ([2]; 0.75 gm/kg P.O.): 1/6
Mortality Ratio ([2]; 0.85 gm/kg P.O.): 2/6
Mortality Ratio ([2]; 1.0 gm/kg P.O.): 4/6
Mortality Ratio ([2]; 2.00 gm/kg P.O.): 5/6
toxicity compared with fenfluramine [2]: considerably less toxic than fenfluramine
toxicity relative to fenfluramine [2]: approximately four times less toxic than fenfluramine
% Change From Control Value in Average Daily Consumption of Food ([3]; 5 mg/kg P.O., rats): -22.9%
% Change From Control Value in Average Daily Consumption of Food ([3]; 10 mg/kg P.O., rats): -28.3%
% Change From Control Value in Average Daily Consumption of Food ([3]; 20 mg/kg P.O., rats): -76.0%
potency compared with fenfluramine [3]: considerably more potent
ED50 ([3]; P.O., rats): 17.4 mg/kg
Relative Potency [3]: 1.2
potency relative to fenfluramine (times) ([3]; rats, P.O.): ~1.2 times
Serum Free Fatty Acids [4]: 870±61 μEq/liter
Serum Concentration, Cholesterol [4]: 122±10 mg%
Serum Concentration, Glucose [4]: 159±7 mg%
Serum Concentration, Glycerol [4]: 2.1±.40 mg%
Serum Concentration, Triglycerides [4]: 62±13 mg%
inhibiting the increase in serum triglycerides induced by olive oil gavage [4]: 50-55%
reduction of olive oil induced increase in serum cholesterol [4]: 14-19%
inhibiting the increase in serum triglycerides, compared with fenfluramine ([4]; in words): comparable to fenfluramine
stimulating properties [5]: minimum stimulating properties
solubility in water [6]: soluble in water

C=COCCNC(C)Cc1ccc(Cl)cc1 (stereo not drawn) [HCl Salt, R=Cl, N-(2-vinyloxyethyl)-α-methyl-β-(4-cholorophenyl) ethylamine hydrochloride]
LD50 [1]: 950 mg/kg
Mortality Ratio ([2]; 0.25 gm/kg P.O.): 0/6
Mortality Ratio ([2]; 0.5 gm/kg P.O.): 1/6
Mortality Ratio ([2]; 1.0 gm/kg P.O.): 3/6
Mortality Ratio ([2]; 1.25 gm/kg P.O.): 4/6
Mortality Ratio ([2]; 1.50 gm/kg P.O.): 5/6
Mortality Ratio ([2]; 2.00 gm/kg P.O.): 6/6
toxicity compared with fenfluramine [2]: considerably less toxic than fenfluramine
toxicity relative to fenfluramine [2]: approximately four times less toxic than fenfluramine
% Change From Control Value in Average Daily Consumption of Food ([3]; 5 mg/kg P.O., rats): -24.5%
% Change From Control Value in Average Daily Consumption of Food ([3]; 10 mg/kg P.O., rats): -53.5%
% Change From Control Value in Average Daily Consumption of Food ([3]; 20 mg/kg P.O., rats): -87.3%
potency compared with fenfluramine [3]: considerably more potent
ED50 ([3]; P.O., rats): 7.7 mg/kg
Relative Potency [3]: 2.5
potency relative to fenfluramine (times) ([3]; rats, P.O.): approximately 2.5 times
Serum Free Fatty Acids [4]: 780±66 μEq/liter
Serum Concentration, Cholesterol [4]: 116±8 mg%
Serum Concentration, Glucose [4]: 159±1 mg%
Serum Concentration, Glycerol [4]: 1.8±.30 mg%
Serum Concentration, Triglycerides [4]: 62±7 mg%
inhibiting the increase in serum triglycerides induced by olive oil gavage [4]: 50-55%
reduction of olive oil induced increase in serum cholesterol [4]: 14-19%
inhibiting the increase in serum triglycerides, compared with fenfluramine ([4]; in words): comparable to fenfluramine
Shock Rate (percentage deviation from baseline rate) [7, 11]: -55%
effect on performance / behavior [7]: did not significantly affect behavior except for the parameter of shock rate which was reduced
effect on performance in Sidman Avoidance test [7]: did not affect performance significantly overall
effect on response rate [7]: response rate remaining stable
effect on shock rate [7]: sharp decrease in shock rate
stimulatory effect ([8]; high doses (300-1000 mg/kg)): only a weak stimulatory effect
stimulating properties [5]: minimum stimulating properties
solubility in water [6]: soluble in water

CCNC(C)Cc1cccc(C(F)(F)F)c1 (centres unmarked) [Fenfluramine, reference compound]
LD50 [1]: 225 mg/kg
Mortality Ratio ([2]; 0.1 gm/kg P.O.): 0/6
Mortality Ratio ([2]; 0.2 gm/kg P.O.): 2/6
Mortality Ratio ([2]; 0.25 gm/kg P.O.): 4/6
Mortality Ratio ([2]; 0.3 gm/kg P.O.): 5/6
% Change From Control Value in Average Daily Consumption of Food ([3]; 5 mg/kg P.O., rats): -18.7%
% Change From Control Value in Average Daily Consumption of Food ([3]; 10 mg/kg P.O., rats): -39.3%
% Change From Control Value in Average Daily Consumption of Food ([3]; 20 mg/kg P.O., rats): -50.5%
Calculated ED50 (dose necessary to reduce the intake of food by 50%) ([3]; P.O., rats): 20.7 mg/kg
ED50 ([3]; P.O., rats): 20 mg/kg
Serum Free Fatty Acids [4]: 919±61 μEq/liter
Serum Concentration, Cholesterol [4]: 140±3 mg%
Serum Concentration, Glucose [4]: 160±9 mg%
Serum Concentration, Glycerol [4]: 1.6±.10 mg%
Serum Concentration, Triglycerides [4]: 61±1 mg%
effect on olive oil induced increase in serum cholesterol ([4]; in words): unaffected
Response Rate (percentage deviation from baseline rate) [7, 11]: +15%
Shock Rate (percentage deviation from baseline rate) [7, 11]: -50%
effect on performance / behavior [7]: amphetamine-like effect on performance
effect on performance in Sidman Avoidance test [7]: all doses to be effective in producing significant results; also recorded: results indicative of amphetamine-like compounds
effect on response rate [7]: increase in response rate
effect on shock rate [7]: decrease in shock rate
stimulant effects [8]: stimulant effects
sedative or stimulant action ([9]; Nursing 74): acts as a sedative rather than a stimulant
glucose tolerance in diabetics ([9]; Turtle et al.): appears to improve glucose tolerance in diabetics
undesirable side effects ([9]; diabetics, Turtle et al.): without producing undersirable side effects
post absorption glucose levels ([9]; given before meals, maturity onset and insulin-requiring diabetics, Turtle et al.): consistently reduced post absorption glucose levels
intestinal absorption of triglycerides ([10]; Bizzi et al.): inhibition of the intestinal absorption of triglycerides
plasma triglycerides ([10]; fed, but not fasted, animals, Garattini et al.): decrease in plasma triglycerides in fed, but not fasted, animals
concentration of plasma free fatty acids ([10]; rats, Bizzi et al.): rapid increase
rise in plasma triglycerides after olive oil gavage ([10]; several hours after olive oil gavage, prior treatment of rats): inhibited

CN[C@@H](C)Cc1ccccc1 [Methamphetamine, methamphetamine]
stimulant effects [8]: stimulant effects

— patent US3998971A, “Novel N-vinyloxyethyl-α-methyl-β-phenethylamines for depressing appetite” (Abbott Laboratories, priority 1975, dated 1976)
